Data published in PMC10685318, “Trans-cyclosulfamidate mannose-configured cyclitol allows isoform-dependent inhibition of GH47 α-D-mannosidases through a bump–hole strategy” (Chemical Science, 2023).

Target: T1, MAN2A1 (Homo sapiens, UniProt Q16706)
T1 construct: expressed in transfected cells
T1 sequence (Q16706 1-1144): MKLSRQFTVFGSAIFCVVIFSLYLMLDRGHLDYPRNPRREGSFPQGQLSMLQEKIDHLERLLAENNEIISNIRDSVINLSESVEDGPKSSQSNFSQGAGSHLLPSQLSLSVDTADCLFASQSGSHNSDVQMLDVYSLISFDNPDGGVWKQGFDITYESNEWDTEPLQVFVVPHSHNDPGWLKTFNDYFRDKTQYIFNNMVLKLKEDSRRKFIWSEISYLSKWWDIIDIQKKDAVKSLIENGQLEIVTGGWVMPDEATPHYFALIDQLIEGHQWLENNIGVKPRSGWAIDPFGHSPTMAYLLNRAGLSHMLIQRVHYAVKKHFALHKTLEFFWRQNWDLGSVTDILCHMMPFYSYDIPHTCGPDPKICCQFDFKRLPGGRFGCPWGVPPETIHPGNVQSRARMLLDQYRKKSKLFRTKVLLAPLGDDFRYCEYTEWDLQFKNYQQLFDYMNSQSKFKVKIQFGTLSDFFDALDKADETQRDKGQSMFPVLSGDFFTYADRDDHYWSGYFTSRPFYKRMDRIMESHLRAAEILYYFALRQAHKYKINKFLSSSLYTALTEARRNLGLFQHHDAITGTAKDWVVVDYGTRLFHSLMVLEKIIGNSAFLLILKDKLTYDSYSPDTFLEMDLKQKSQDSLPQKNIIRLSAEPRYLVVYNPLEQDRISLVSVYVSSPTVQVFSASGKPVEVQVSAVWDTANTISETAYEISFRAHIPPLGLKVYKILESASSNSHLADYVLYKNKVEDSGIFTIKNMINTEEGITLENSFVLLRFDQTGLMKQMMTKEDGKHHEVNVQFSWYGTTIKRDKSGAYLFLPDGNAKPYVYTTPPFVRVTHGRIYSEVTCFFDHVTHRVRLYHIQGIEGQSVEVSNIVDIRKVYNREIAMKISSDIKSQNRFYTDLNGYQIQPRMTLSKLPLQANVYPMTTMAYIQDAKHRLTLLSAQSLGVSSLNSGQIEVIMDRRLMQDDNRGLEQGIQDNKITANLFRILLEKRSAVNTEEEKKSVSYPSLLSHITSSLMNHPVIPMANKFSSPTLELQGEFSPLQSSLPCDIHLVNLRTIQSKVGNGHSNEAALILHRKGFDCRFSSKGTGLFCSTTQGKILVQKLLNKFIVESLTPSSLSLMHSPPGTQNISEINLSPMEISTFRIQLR
Experiment: 4-MU-α-man activity assay in overexpressed cell lysates
Type: biochemical
Source text: Finally, selectivity versus a panel of related exo-mannosidases was investigated. We first tested inhibition against all five human GH38 retaining α-mannosidases in overexpressed cell lysates using 4-methylumbelliferyl-α-mannoside (4-MU-α-man): Golgi mannosidase II and IIx (MAN2A1 and MAN2A2), cytosolic MAN2C1 and lysosomal MAN2B1 and MAN2B2. This α-mannosidase family follows a different conformational itinerary than GH47: ^0S2 → B2,5 → ^1S5.[35] […] Of note, the presence of cobalt has been associated with conformational changes in the active site of some GH38 α-mannosidases, which might affect the binding interaction with inhibitors.[36] Nevertheless, additional research is required to explore which specific metal ion is present in the MAN2C1 active site in its in vivo state.
Trans-Cyclosulfamidate Cyclitols Males et al.
2.3 GH38 α-mannosidases and GH2 β-mannosidase inhibition studies
All chemicals were of analytical grade and purchased from Sigma-Aldrich unless stated otherwise.
Optimal stability of cell homogenates and enzyme working stocks was ensured by preparation and temporary storage on ice. Cell homogenates were prepared and used on the same day. Protein concentrations were quantified using the Pierce BCA Protein Assay Kit (ThermoFisher). Protein samples were measured in clear flat-bottom polystyrene 96 well microplates (Greiner Bio-One) using a EMax Plus Microplate Reader (Molecular Devices). Activity measurements of human GH38 α-mannosidases and bacterial β-mannosidase BtMan2A were performed in black flat-bottom polystyrene 96 wells microplates (Greiner Bio-One) and total fluorescence was measured using a Perkin Elmer LS-55 fluorescence spectrometer at wavelengths λex = 366 and λem = 445 nm, with the signal optimized for medium gain readings. The fluorescence values of each enzyme sample were corrected for the background signal of a blank sample containing no enzyme. In the case of IC50 determinations, values were normalized against a control sample containing enzyme without added inhibitor. For a single experiment, three separate curves were fitted from a technical triplicate by setting the inhibitor concentration in µM against the normalized response using GraphPad Prism 8.4.2 software. The Prism functions ‘[inhibitor] versus normalized response’ and ‘[inhibitor] versus normalized response -- variable slope’ were compared for each curve using the Akaike’s Information Criterion method to select the preferred model. Reported IC50 values are mean ± standard deviation from a biological […]
General cell culture protocol
HEK293T cells were grown to confluency at 37 °C under a 5% CO2 atmosphere in Dulbecco’s Modified Eagle’s Medium (DMEM) with a high glucose concentration (Capricorn Scientific, DMEM-HPXA) that was supplemented with 10% fetal calf serum, 0.1% (w/v) penicillin/streptomycin and 1% (v/v) Glutamax. Cells were passaged twice a week to new round polystyrene (PS) tissue culture dishes (Sarstedt) by detachment off the former culture plates by careful pipetting. To prepare cell pellets for activity measurements, plates were grown to confluency and harvested in phosphate buffered saline (PBS). After centrifugation at 1500 rpm for 5 min, the remaining PBS was aspirated and the cells were resuspended in fresh PBS. The concentration of the resulting suspension was then counted using a TC20 automated cell counter (BioRad). Aliquots were centrifuged at 2000 rpm for 5 min and the resulting cell pellets were stored at -80 °C until further use.
4-MU activity assay protocol for human GH38 α-mannosidases
HEK293T cells stably overexpressing human GH38 α-mannosidases MAN2A1, MAN2A2, MAN2B1, MAN2B2 and MAN2C1 were prepared as previously described[11] and were kindly donated by Dr. C. L.
Kuo. Homogenates were prepared by sonicating cell pellets (Sonics VibraCell, 5x1 s with 30 s interval at 20% amplitude) in 150 mM McIlvain buffer of pH 5.5 (MAN2A1, MAN2A2), pH 4.5 (MAN2B1, MAN2B2) or pH 6.7 (MAN2C1) containing either 2 mM ZnCl2 (MAN2A1, MAN2A2, MAN2B1, MAN2B2) […]

O=S1(=O)N[C@@H]2[C@@H](O)[C@@H](O)[C@H](O)[C@@H](CO)[C@H]2O1 [compound 6, 1,6-trans-manno-cyclosulfamidate]
activity when the buffer was enriched with CoCl2 (CoCl2): no activity
IC50 (Zn2+): > 1000 µM
